Source: patent US6900200B2, “Tricyclic hydroxy carboxamides and derivatives thereof tocolytic oxytocin receptor antagonists” (Wyeth, priority 2001, dated 2005)

melting point: 132 to 140 °C (dec.)
SMILES: COc1cc(C(=O)N2Cc3ccc(C(=O)N(C)C[C@H](O)[C@@H](O)[C@@H](O)[C@H](O)CO)n3Cc3ccccc32)ccc1-c1ccccc1C(F)(F)F [Example 23, 10-{[2-Methoxy-2′-trifluoromethyl-[1,1′-biphenyl]-4-yl]carbonyl}-N-methyl-N-[(2R,3S,4R,5S)-2,3,4,5,6-pentahydroxyhexyl]-10,11-dihydro-5H-pyrrolo[2,1-c][1,4]benzodiazepine-3-carboxamide]
